The results in this text go back to patent US20260109694A1, “HETEROCYCLIC COMPOUNDS AND USES THEREOF” (Kumquat Biosciences Inc., priority 2023, published 2026).

One may read the IC50 as the midpoint of a concentration-inhibition curve.

In one experiment the target is T1, PTPN2 (Homo sapiens, UniProt P17706).
T1 sequence (P17706 1-415): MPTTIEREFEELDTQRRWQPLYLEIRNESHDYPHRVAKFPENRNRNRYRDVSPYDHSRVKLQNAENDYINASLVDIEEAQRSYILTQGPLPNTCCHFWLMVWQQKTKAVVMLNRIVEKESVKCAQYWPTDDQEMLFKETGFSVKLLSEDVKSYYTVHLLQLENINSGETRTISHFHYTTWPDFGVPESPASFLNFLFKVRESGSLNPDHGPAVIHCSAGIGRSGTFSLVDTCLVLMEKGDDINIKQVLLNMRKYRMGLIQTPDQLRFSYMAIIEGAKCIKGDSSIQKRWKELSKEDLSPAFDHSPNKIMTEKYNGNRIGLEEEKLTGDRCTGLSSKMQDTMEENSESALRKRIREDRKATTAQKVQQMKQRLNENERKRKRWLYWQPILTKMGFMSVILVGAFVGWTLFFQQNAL
Kind of experiment: Phosphatase activity assay (DiFMUP substrate). It is filed as biochemical. The note with it: value bin printed in column head. The protocol:
(§1) The selectivity and potency of a small molecule PTPN2 inhibitor as provided herein against one or more protein tyrosine phosphatase (PTP) enzymes, and specifically against PTPN2, is assessed in various ways. The one or more PTP enzymes comprise Mycobacterium protein tyrosine phosphatase A (mPTPA), Mycobacterium protein tyrosine phosphatase B (mPTPB), PTPN1 (i.e., PTP1B), PTPN2 (i.e., TC-PTP), PTPN22 (i.e., LYP), SHP-1, SHP-2, FAP-1, Meg2, HePTP, Laforin, VHX, VHR, LMWPTP, Cdc14A, LAR, CD45, PTPRG, a fragment thereof, a variant thereof, and a combination thereof. Selectivity and potency of a small molecule PTPN2 inhibitor is evaluated using a PTP activity inhibition assay. The assay is performed using a buffer comprising 50 mM HEPES buffer pH 7.5, 150 mM NaCl, 0.5 mM EDTA, 1 mM DTT, 0.001% Tween-20.
(§2) The assay is performed using a phosphated substrate, e.g., 10 mM 6,8-Difluoro-4-Methylumbelliferyl Phosphate (DIFMUP) that is stored at −20° C. Alternatively or in addition to, the assay is performed using other phosphated substrate (e.g., fluorescein diphosphate). Each PTP enzyme is diluted in the assay buffer
(§3) The assay can be carried out at room temperature in multiplate format, e.g., using 384 well plates. A small molecule PTPN2 inhibitor dissolved in DMSO at one of 10 concentrations from a serial dilution or DMSO alone for control is added to each well. A mixture of the assay buffer comprising PTP enzyme (e.g., 0.025 ng/ul PTPN2) is added to each well and mixed for approximately 2 minutes. The reaction is initiated by adding DiFMUP diluted in the assay buffer to a final concentration of approximately 45 µM DiFMUP in PTPN2 assay. For each PTP enzyme, DiFMUP is added at the Km (Michaelis constant) of the enzyme that had been independently determined. The phosphatase activity of the PTP enzyme is assessed by monitoring appearance of a fluorescent product (6,8-difluoro-7-hydroxyl-4-coumarin (DiFMU) from DiFMUP) continuously for about 15 to 30 minutes, using the INFINITE M1000Pro plate reader (Tecan) with excitation at 360 nm and emission at 450 nm (cutoff filter at 435 nm) for DiFMU. Each assay is performed at least in duplicate. The rate (e.g., the initial rate) of DiFMU formation is plotted against the concentration of the small molecule PTPN2 inhibitor, and the data is fitted (e.g., using a 4-parameter equation) to determine the inflection point of the fit as the IC50 of the small molecule PTPN2 inhibitor for a specific enzyme. Utilizing this assay, the ability of the compounds in Table 1 to inhibit PTPN2 and PTP1B has been assessed. Table 3 summarizes the IC50 values.

The target of a further experiment is T2, PTP1B (Homo sapiens, UniProt P18031).
T2 sequence (P18031 1-435): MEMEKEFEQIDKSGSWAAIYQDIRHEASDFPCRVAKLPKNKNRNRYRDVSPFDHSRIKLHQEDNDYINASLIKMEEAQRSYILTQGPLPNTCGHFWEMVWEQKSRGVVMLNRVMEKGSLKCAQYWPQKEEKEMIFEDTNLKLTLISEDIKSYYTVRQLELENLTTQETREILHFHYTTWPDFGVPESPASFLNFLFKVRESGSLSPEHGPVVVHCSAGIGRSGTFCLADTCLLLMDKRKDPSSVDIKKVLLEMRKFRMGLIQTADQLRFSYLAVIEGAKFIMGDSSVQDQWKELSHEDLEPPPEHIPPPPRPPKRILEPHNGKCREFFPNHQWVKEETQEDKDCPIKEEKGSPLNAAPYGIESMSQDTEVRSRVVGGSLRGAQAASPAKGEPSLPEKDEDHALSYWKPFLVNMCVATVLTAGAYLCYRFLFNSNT
Kind of experiment: Phosphatase activity assay (DiFMUP substrate). It is filed as biochemical. The note with it: value bin printed in column head. The protocol: as §1, §2, §3

For `CC(OC(=O)C(C)C)OC(=O)N1CC(c2ccc(O)c(N3CC(=O)NS3(=O)=O)c2F)=C[C@H]1CCC1CC1` (mixture of isomers) [Compound 111, 1-(isobutyryloxy)ethyl (2R)-2-(2-cyclopropylethyl)-4-(3-(1,1-dioxido-4-oxo-1,2,5-thiadiazolidin-2-yl)-2-fluoro-4-hydroxyphenyl)-2,5-dihydro-1H-pyrrole-1-carboxylate], the IC50 at PTPN2 and on PTP1B was no more than 1000 nM each time.

In the case of `O=C1CN(c2c(O)ccc(C3=CC(CCC4CCC4)NC3)c2F)S(=O)(=O)N1` (racemic) [Compound 106, 5-(3-(5-(2-cyclobutylethyl)-2,5-dihydro-1H-pyrrol-3-yl)-2-fluoro-6-hydroxyphenyl)-1,2,5-thiadiazolidin-3-one 1,1-dioxide], the IC50 on PTPN2 and at PTP1B was no more than 1000 nM throughout.

Regarding `O=C1CN(c2c(O)ccc(C3=C[C@@H](C=CC4CC4)NC3)c2F)S(=O)(=O)N1` (single isomer, unassigned) [Compound 102, (R,E)-5-(3-(5-(2-cyclopropylvinyl)-2,5-dihydro-1H-pyrrol-3-yl)-2-fluoro-6-hydroxyphenyl)-1,2,5-thiadiazolidin-3-one 1,1-dioxide or (R,Z)-5-(3-(5-(2-cyclopropylvinyl)-2,5-dihydro-1H-pyrrol-3-yl)-2-fluoro-6-hydroxyphenyl)-1,2,5-thiadiazolidin-3-one 1,1-dioxide], the IC50 at PTPN2 and at PTP1B was no more than 1000 nM in each case.

`O=C1CN(c2c(O)ccc(C3=CC(CCC4CCCC4)NC3)c2F)S(=O)(=O)N1` (stereo not drawn) [Compound 101, 5-(3-(5-(2-cyclopentylethyl)-2,5-dihydro-1H-pyrrol-3-yl)-2-fluoro-6-hydroxyphenyl)-1,2,5-thiadiazolidin-3-one 1,1-dioxide]: the IC50 on PTPN2 and on PTP1B was no more than 1000 nM in each case.

In the case of `O=C1CN(c2c(O)ccc(CC3CNC3)c2F)S(=O)(=O)N1` [Compound 103, 5-(3-(azetidin-3-ylmethyl)-2-fluoro-6-hydroxyphenyl)-1,2,5-thiadiazolidin-3-one 1,1-dioxide], the IC50 on PTPN2 and on PTP1B was no more than 1000 nM in each case.

As to `CC1(CCC2C=C(c3ccc(O)c(N4CC(=O)NS4(=O)=O)c3F)CN2)CC1` (stereo not drawn) [Compound 104, 5-(2-fluoro-6-hydroxy-3-(5-(2-(1-methylcyclopropyl)ethyl)-2,5-dihydro-1H-pyrrol-3-yl)phenyl)-1,2,5-thiadiazolidin-3-one 1,1-dioxide], the IC50 at PTPN2 and on PTP1B was no more than 1000 nM in each case.

Turning to `O=C1CN(c2c(O)cc(C3=CC(CCC4CC4)NC3)cc2F)S(=O)(=O)N1` (stereo not drawn) [Compound 105, 5-(4-(5-(2-cyclopropylethyl)-2,5-dihydro-1H-pyrrol-3-yl)-2-fluoro-6-hydroxyphenyl)-1,2,5-thiadiazolidin-3-one 1,1-dioxide], the IC50 on PTPN2 and at PTP1B was no more than 1000 nM throughout.

For `N#CCC1C=C(c2ccc(O)c(N3CC(=O)NS3(=O)=O)c2F)CN1` (stereo not drawn) [Compound 107, 2-(4-(3-(1,1-dioxido-4-oxo-1,2,5-thiadiazolidin-2-yl)-2-fluoro-4-hydroxyphenyl)-2,5-dihydro-1H-pyrrol-2-yl)acetonitrile], the concentration for half-maximal inhibition (IC50) at PTPN2 and on PTP1B was no more than 1000 nM in each case.

Regarding `CC1(C2C=C(c3ccc(O)c(N4CC(=O)NS4(=O)=O)c3F)CN2)CC1` (stereo not drawn) [Compound 108, 5-(2-fluoro-6-hydroxy-3-(5-(1-methylcyclopropyl)-2,5-dihydro-1H-pyrrol-3-yl)phenyl)-1,2,5-thiadiazolidin-3-one 1,1-dioxide], the IC50 at PTPN2 is no more than 1000 nM; at PTP1B, greater than 1000 nM.

With `O=C1CN(c2c(O)ccc(C3=CC(C4CC4)NC3)c2F)S(=O)(=O)N1` (stereo not drawn) [Compound 109, 5-(3-(5-cyclopropyl-2,5-dihydro-1H-pyrrol-3-yl)-2-fluoro-6-hydroxyphenyl)-1,2,5-thiadiazolidin-3-one 1,1-dioxide], the IC50 on PTPN2 and at PTP1B was no more than 1000 nM in each case.

Turning to `CC(C)(C)CC[C@@H]1C=C(c2ccc(O)c(N3CC(=O)NS3(=O)=O)c2F)CN1` [Compound 110, (R)-5-(3-(5-(3,3-dimethylbutyl)-2,5-dihydro-1H-pyrrol-3-yl)-2-fluoro-6-hydroxyphenyl)-1,2,5-thiadiazolidin-3-one 1,1-dioxide], the IC50 on PTPN2 and at PTP1B was no more than 1000 nM throughout.

`NC1CCCC1c1ccc(O)c(N2CC(=O)NS2(=O)=O)c1F` (stereo not drawn) [Compound 112, 5-(3-(2-aminocyclopentyl)-2-fluoro-6-hydroxyphenyl)-1,2,5-thiadiazolidin-3-one 1,1-dioxide]: the IC50 at PTPN2 and on PTP1B was greater than 1000 nM in each case.

With `O=C1CN(c2c(O)ccc(C3=C[C@@H](CCC4CC4)NC3)c2F)S(=O)(=O)N1` [Compound 113, (R)-5-(3-(5-(2-cyclopropylethyl)-2,5-dihydro-1H-pyrrol-3-yl)-2-fluoro-6-hydroxyphenyl)-1,2,5-thiadiazolidin-3-one 1,1-dioxide], the IC50 on PTPN2 and at PTP1B was no more than 1000 nM each time.

For `CCC[C@@H]1C=C(c2ccc(O)c(N3CC(=O)NS3(=O)=O)c2F)CN1` [Compound 114, (R)-5-(2-fluoro-6-hydroxy-3-(5-propyl-2,5-dihydro-1H-pyrrol-3-yl)phenyl)-1,2,5-thiadiazolidin-3-one 1,1-dioxide], the IC50 at PTPN2 and on PTP1B was no more than 1000 nM in each case.

On to `CC1(C)CC1CCC1C=C(c2ccc(O)c(N3CC(=O)NS3(=O)=O)c2F)CN1` (stereo not drawn) [Compound 115, 5-(3-(5-(2-(2,2-dimethylcyclopropyl)ethyl)-2,5-dihydro-1H-pyrrol-3-yl)-2-fluoro-6-hydroxyphenyl)-1,2,5-thiadiazolidin-3-one 1,1-dioxide], for which the concentration for half-maximal inhibition (IC50) on PTPN2 and at PTP1B was no more than 1000 nM each time.

Take `O=C1CN(c2c(O)ccc(C3=C[C@@H](CCC4CCC4)NC3)c2F)S(=O)(=O)N1` [Compound 116, (R)-5-(3-(5-(2-cyclobutylethyl)-2,5-dihydro-1H-pyrrol-3-yl)-2-fluoro-6-hydroxyphenyl)-1,2,5-thiadiazolidin-3-one 1,1-dioxide]: the concentration for half-maximal inhibition (IC50) on PTPN2 and on PTP1B was no more than 1000 nM in each case.

Turning to `CC1CC1C1C=C(c2ccc(O)c(N3CC(=O)NS3(=O)=O)c2F)CN1` (stereo not drawn) [Compound 117, 5-(2-fluoro-6-hydroxy-3-(5-(2-methylcyclopropyl)-2,5-dihydro-1H-pyrrol-3-yl)phenyl)-1,2,5-thiadiazolidin-3-one 1,1-dioxide], the IC50 at PTPN2 and at PTP1B was no more than 1000 nM throughout.

Regarding `CC1=C(c2ccc(O)c(N3CC(=O)NS3(=O)=O)c2F)CNC1C` (stereo not drawn) [Compound 118, 5-(3-(4,5-dimethyl-2,5-dihydro-1H-pyrrol-3-yl)-2-fluoro-6-hydroxyphenyl)-1,2,5-thiadiazolidin-3-one 1,1-dioxide], the IC50 on PTPN2 and at PTP1B was greater than 1000 nM throughout.
